Assay results reported in PMC10299677, “Fluorinated Benzofuran and Dihydrobenzofuran as Anti-Inflammatory and Potential Anticancer Agents” (International Journal of Molecular Sciences, 2023).

Experiment: Toxicity on macrophages (BMDM), WST-1 assay
Type: cell-based, C57BL/6J mice
Conditions: C57BL/6J, mouse, bone marrow-derived macrophages (BMDM), read-out: macrophage viability
Procedure: WST-1 assay (Sigma-Aldrich, 5015944001) was used to determine the toxicity of the synthesized compounds on BMDM and HCT116 (ATCC, CCL-247), kindly provided by Dr. Nadine Darwiche, Department of Biochemistry and Molecular Genetics, American University of Beirut, Lebanon. Briefly, macrophages (50,000 cells per well) and HCT116 (20,000 cells per well) were plated in a 96-well plate in RPMI 1640 culture medium containing 10% fetal bovine serum (FBS) and grown for 24 h. Cells (in triplicates) were treated with 10 or 50 μM of the compounds for macrophages, and 50 or 100 μM for HCT116. Culture medium without cells and cells without treatment were used as basal and maximal activity, respectively. Results were expressed as percentage of cells without treatment.
F i g u re S1: E ff e c t of fluorin at ed benzofuran derivatives on m acrophages
viabilit y. C ells in cub at ed with 10 and 50 μM of benzofuran d eri vativ es
(compounds 1 to 9) bel onging to groups І, II, III and IV for 24 hours. Cell
viabilit y w as det ermin ed by WST-1 assay. Non-t r eated m acrophages wer e used
as cont rol. Results were shown as mean ± SEM (n=3) . *p< 0.05 comp ar ed to the
vehicle –treated cells (basal), one-way ANOVA followed by Dunnett’s test.
(1 picture or pasted object on this page, not shown here)

`COC(=O)/C=C1/Oc2ccc(Br)cc2C1(F)F` [Compound 1] showed a viability at 24 h, 50 µM of 50%.
